This is an account of results in article PMC6343479 (2018).

For assay [1], the system named is CTG palindrome d(CTGCTGCAGCAG) (DNA, duplex) CTGCTGCAGCAG
In words: ITC. As to conditions: single binding model; representative curve K = (2.1 ± 0.3) ×10^6 M^-1.

The subject of assay [2] is r(CUG)4 (RNA, repeat) CUGCUGCUGCUG
In words: ITC. As to conditions: single binding model; representative curve K = (1.06 ± 0.30) ×10^7 M^-1.

In the case of `N=C(N)c1ccc(-c2ccc(-c3ccc(C(=N)N)cc3)o2)cc1`, the values for the KD in assay [1] and in assay [2] were 485 ± 73 nM and 99 ± 25 nM, respectively.

Broadly, the KD is the constant that tells how readily two partners part at equilibrium. A low value points to a tighter complex.
